{"source": "paper PMC4954967", "about": "“Identification of a diazinon-metabolizing glutathione S-transferase in the silkworm, Bombyx mori” (Scientific Reports, 2016)", "assay_in_all_cases": "spectrophotometric GST assay at […] nm, nonlinear least-squares fit", "format_in_all_cases": "biochemical", "key": {"[1]": {"biological_target": "T1, bmGSTu2 (Bombyx mori, UniProt A9XI30, I54A)", "T1 construct": "full length, 233 residues, 26,667 Da calculated; cDNA from fat body; pET-22b (EcoRI/XhoI, reverse primer without stop codon), E. coli Rosetta (DE3) pLysS", "T1 sequence (A9XI30 1-233 I54A)": "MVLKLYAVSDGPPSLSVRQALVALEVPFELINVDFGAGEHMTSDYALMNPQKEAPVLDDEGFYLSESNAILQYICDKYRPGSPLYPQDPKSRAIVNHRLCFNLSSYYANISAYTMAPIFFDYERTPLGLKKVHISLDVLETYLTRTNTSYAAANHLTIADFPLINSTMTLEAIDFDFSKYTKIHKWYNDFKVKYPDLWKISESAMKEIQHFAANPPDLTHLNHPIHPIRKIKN", "conditions": "read-out: I54A; 5 mM GSH; value (SD), n = 3"}, "[2]": {"biological_target": "T2, bmGSTu2 (Bombyx mori, UniProt A9XI30, E66A)", "T2 construct": "full length, 233 residues, 26,667 Da calculated; cDNA from fat body; pET-22b (EcoRI/XhoI, reverse primer without stop codon), E. coli Rosetta (DE3) pLysS", "T2 sequence (A9XI30 1-233 E66A)": "T1 sequence (A9XI30 1-233 I54A) with A54I, E66A", "conditions": "read-out: E66A; 5 mM GSH; value (SD), n = 3"}, "[3]": {"biological_target": "T3, bmGSTu2 (Bombyx mori, UniProt A9XI30, S67A)", "T3 construct": "full length, 233 residues, 26,667 Da calculated; cDNA from fat body; pET-22b (EcoRI/XhoI, reverse primer without stop codon), E. coli Rosetta (DE3) pLysS", "T3 sequence (A9XI30 1-233 S67A)": "T1 sequence (A9XI30 1-233 I54A) with A54I, S67A", "conditions": "read-out: S67A; 5 mM GSH; value (SD), n = 3"}, "[4]": {"biological_target": "T4, bmGSTu2 (Bombyx mori, UniProt A9XI30, N68A)", "T4 construct": "full length, 233 residues, 26,667 Da calculated; cDNA from fat body; pET-22b (EcoRI/XhoI, reverse primer without stop codon), E. coli Rosetta (DE3) pLysS", "T4 sequence (A9XI30 1-233 N68A)": "T1 sequence (A9XI30 1-233 I54A) with A54I, N68A", "conditions": "read-out: N68A; 5 mM GSH; value (SD), n = 3"}, "[5]": {"biological_target": "T5, bmGSTu2 (Bombyx mori, UniProt A9XI30)", "T5 construct": "full length, 233 residues, 26,667 Da calculated; cDNA from fat body; pET-22b (EcoRI/XhoI, reverse primer without stop codon), E. coli Rosetta (DE3) pLysS", "T5 sequence (A9XI30 1-233)": "T1 sequence (A9XI30 1-233 I54A) with A54I", "conditions": "read-out: Wild-type; 5 mM GSH; value (SD), n = 3"}}, "note": "Residue numbers refer to the chain shown, from its start."}
{"smiles": "O=[N+]([O-])c1ccc(Cl)c([N+](=O)[O-])c1", "note": "[CDNB]", "values": [{"measurement": "Km", "setting": "[1]", "value": 2500, "unit": "µM"}, {"measurement": "Km", "setting": "[2]", "value": 910, "unit": "µM"}, {"measurement": "Km", "setting": "[3]", "value": 1600, "unit": "µM"}, {"measurement": "Km", "setting": "[4]", "value": 530, "unit": "µM"}, {"measurement": "Km", "setting": "[5]", "value": 270, "unit": "µM"}]}
